Test results: patent US20230321253A1, “BIFUNCTIONAL COMPOUNDS AND PHARMACEUTICAL USES THEREOF” (RISEN (SUZHOU) PHARMA TECH CO., LTD., priority 2022, published 2023)

Molecular target: T1, KRAS-G12D protein (Homo sapiens, UniProt P01116, G12D)
T1 construct: host or cells: Aspc-1 cells
Experiment: KRAS-G12D protein degradation study in Aspc-1 cells (western blot)
Format: cell-based
Conditions: for inhibition at 0.05 µM / inhibition at 0.1 µM / inhibition at 1 µM: ASPC1, 24 h; for inhibition at 0.05 µM: Aspc-1 cells treated with 50 nM compound, read-out: Rate of degradation (KRAS^G12D); for inhibition at 0.1 µM / inhibition at 1 µM: read-out: Rate of protein degradation (KRAS^G12D); for DC50: Aspc-1 cells, read-out: DC50 of test compound-induced KRAS^G12D protein degradation; for inhibition at 1 µM: Aspc-1 cells treated with 1 μM compound
Experimental: Aspc-1 (Cobioer, CBP60546) cells in exponential growth phase were inoculated on a 6-well cell culture plate (Corning, 3516) at density of 1E6/well; and cells in the plate were cultured in 37° C. incubator containing 5% carbon dioxide. The next day, test compounds were dissolved in DMSO (Sigma, RNBF5902) for the preparation of a 10 mM concentration stock solution. The stock solution was diluted with complete medium (RPMI-1640 supplemented with 10% fetal bovine serum, 1% penicillin-streptomycin), yielding working solutions of various concentrations. The plate, after the addition of compounds, was placed in a 5% carbon dioxide incubator, and incubated at 37° C. for 24 hours (final DMSO concentration was 0.1%). The plate was then removed from the incubator, and the cells were washed twice with precooled PBS (Gibco, 14190250), followed by addition of 80 μL RIPA lysis buffer (containing protease inhibitor (Invitrogen™, AM2696)) to each well. The adherent cells were scraped off with a cell scraper, and the cell lysate was transferred to a 1.5 mL centrifuge tube followed with a 30-minute incubation on ice. The lysate was then clarified with centrifugation at 14000 rpm for 10 min at 4° C. The supernatant was transferred into a new 1.5 mL centrifuge tube, and protein concentration was measured with BCA protein detection kit (Thermo Fisher, 23225). KRAS-G12D protein level was assessed by western blot.
A mixture of cell lysate (40 μL) and loading buffer (10 μL 5×SDS (Beyotime, P0015L)) was denatured in a water bath at 95° C. for 10 min. The denatured protein sample, at 30 μL/well, was loaded into the corresponding well of a 4-20% Bis-Tris gel (Kingsley, M00656). Protein samples were initially electrophoresed at 80 V for 30 minutes, followed by 120 V for 40 minutes, until the bromophenol blue strip ran to an appropriate position. After electrophoresis, iBlot2 (Life Technologies, IB21001) was used to transfer the separated samples onto PVDF film. The PVDF membrane was washed with double-distilled water and then blocked in TBST (Thermo Scientific, 28360) buffer containing 5% non-fat milk, for 2 hours. Blocked membrane was rinsed with tris-buffered saline tween-20 (Thermo Scientific, 28360, TBST) three times, 10 minutes each. Membrane was then incubated with 1:1000 diluted KRAS primary antibody (CST, cat #14429S) overnight at 4° C. Membrane was rinsed as described previously followed by 1 hour incubation of secondary antibody at room temperature. After washing the film three times with TBST, ECL color developing solution was applied, and image was captured with Biorad Chemi Doc gel imager. The band gray value was quantified (Image Lab), and protein degradation level was calculated according to the following formula:
Level of RAS protein expression=(RAS-compound/GAPDH)/(RAS-DMSO/GAPDH)
Level of degradation (%)=(1−Rate of RAS protein expression)×100
The symbols “−”, “+”, “++”, and “+++” indicate that the degradation level of KRAS^G12D protein induced by the test compounds was 10% or less, 11 to 30%, 31 to 60%, and greater than 60%, respectively.
Half-maximum degradation concentrations (DC50s) of exemplary test compounds were calculated using GraphPad Prism and their values are shown in Table 6. The symbols “++++”, “+++”, “++” and “+” indicate DC50 equal or less than 10 nM, 11-50 nM, 51-100 nM, and 101-200 nM, respectively.

[1] = Aspc-1 cells treated with 0.1 μM compound, 24 hours

T1 sequence (P01116 1-188 isoform P01116-2 G12D): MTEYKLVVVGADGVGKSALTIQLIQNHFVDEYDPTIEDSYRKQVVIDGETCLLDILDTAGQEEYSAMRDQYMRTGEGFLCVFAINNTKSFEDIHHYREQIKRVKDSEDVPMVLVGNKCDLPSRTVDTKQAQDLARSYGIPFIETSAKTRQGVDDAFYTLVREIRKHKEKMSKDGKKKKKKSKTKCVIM

Structure (SMILES) | inhibition at 0.05 µM (24 hours) [%] | inhibition at 0.1 µM [1] [%] | other results
C#Cc1c(F)ccc2cc(O)cc(-c3ncc4c(N5CC6CCC(C5)N6)nc(OCC5(CN6CC(CN7CCN(c8ccc(C(=O)NC9CCC(=O)NC9=O)nc8)CC7)C6)CC5)nc4c3F)c12 (centres unmarked) [Compound 134] | 11 to 30 | – | –
C#Cc1c(F)ccc2cc(O)cc(-c3ncc4c(N5CC6CCC(C5)N6)nc(OC5CCN(CCCCCCCCOc6cc(-c7ncsc7C)ccc6CNC(=O)[C@@H]6C[C@@H](O)CN6C(=O)[C@@H](NC(=O)C6(F)CC6)C(C)(C)C)CC5)nc4c3F)c12 [Compound 76] | – | ≤ 10 | –
C#Cc1c(F)ccc2cc(O)cc(-c3ncc4c(N5CC6CCC(C5)N6)nc(OCC5(CN6CCC7(CC6)CC(N6CCC(c8ccc(C9CCC(=O)NC9=O)cc8)CC6)C7)CC5)nc4c3F)c12 (centres unmarked) [Compound 166] | > 60 | – | –
C#Cc1c(F)ccc2cc(O)cc(-c3ncc4c(N5CC6CCC(C5)N6)nc(OC5CCN(CC(=O)N6CCC7(CC6)CC(N6CCC(c8ccc(NC9CCC(=O)NC9=O)cc8F)CC6)C7)CC5)nc4c3F)c12 (centres unmarked) [Compound 114] | – | > 60 | DC50: < 10 nM
C#Cc1c(F)ccc2cc(O)cc(-c3ncc4c(N5CC6CCC(C5)N6)nc(OCC5(CN6CCN(C(=O)CN7CCN(c8ccc(C(=O)NC9CCC(=O)NC9=O)nc8)CC7)CC6)CC5)nc4c3F)c12 (centres unmarked) [Compound 126] | ≤ 10 | – | –
C#Cc1c(F)ccc2cc(O)cc(-c3ncc4c(N5CC6CCC(C5)N6)nc(OCC5(CN6CCC7(CC6)CC(N6CCC(c8cccc(C9CCC(=O)NC9=O)c8)CC6)C7)CC5)nc4c3F)c12 (centres unmarked) [Compound 162] | ≤ 10 | – | –
C#Cc1c(F)ccc2cc(O)cc(-c3ncc4c(N5CC6CCC(C5)N6)nc(OCCCN5CCN(CCCCCC(=O)N[C@H](C(=O)N6C[C@H](O)C[C@H]6C(=O)NCc6ccc(-c7scnc7C)cc6)C(C)(C)C)CC5)nc4c3F)c12 [Compound 28] | – | – | inhibition at 1 µM (24 hours): 11 to 30%
C#Cc1c(F)ccc2cc(O)cc(-c3ncc4c(N5CC6CCC(C5)N6)nc(OC5CCN(CCCCCCCCCCCCOc6cc(-c7ncsc7C)ccc6CNC(=O)[C@@H]6C[C@@H](O)CN6C(=O)[C@@H](NC(=O)C6(F)CC6)C(C)(C)C)CC5)nc4c3F)c12 [Compound 78] | – | ≤ 10 | –
C#Cc1c(F)ccc2cc(O)cc(-c3ncc4c(N5CC6CCC(C5)N6)nc(OCC5(CN6CCC7(CC6)CCN(c6ccc8c(c6)C(=O)N(C6CCC(=O)NC6=O)C8=O)CC7)CC5)nc4c3F)c12 (centres unmarked) [Compound 127] | > 60 | – | –
C#Cc1c(F)ccc2cc(O)cc(-c3ncc4c(N5CC6CCC(C5)N6)nc(OCC5(CN6CCC7(CCN(c8ccc(NC9CCC(=O)NC9=O)cc8F)CC7)C6)CC5)nc4c3F)c12 (centres unmarked) [Compound 125] | 31 to 60 | – | –
CCc1c(F)ccc2cc(O)cc(-c3ncc4c(N5CC6CCC(C5)N6)nc(OCC56CCCN5[C@@H](COC(=O)NCCOCCOCCC(=O)N[C@H](C(=O)N5C[C@H](O)C[C@H]5C(=O)N[C@@H](C)c5ccc(-c7scnc7C)cc5)C(C)(C)C)CC6)nc4c3F)c12 (some centres unmarked) [Compound 58] | – | 11 to 30 | inhibition at 1 µM (24 hours): 31 to 60%
C#Cc1c(F)ccc2cc(O)cc(-c3ncc4c(N5CC6CCC(C5)N6)nc(OCC5(CN6CCC(C(=O)N7CCN(c8ccc(NC9CCC(=O)NC9=O)cc8F)CC7)CC6)CC5)nc4c3F)c12 (centres unmarked) [Compound 107] | – | 11 to 30 | –
C#Cc1c(F)ccc2cc(O)cc(-c3ncc4c(N5CC6CCC(C5)N6)nc(OCC5(CN6CCC(CC(=O)N7CCC(c8ccc9c(C%10CCC(=O)NC%10=O)nn(C)c9c8)CC7)CC6)CC5)nc4c3F)c12 (centres unmarked) [Compound 147] | 31 to 60 | – | –
C#Cc1c(F)ccc2cc(O)cc(-c3ncc4c(N5CC6CCC(C5)N6)nc(OCC5(CN6CCN(CC7CCN(c8ccc9c(c8)C(=O)N(C8CCC(=O)NC8=O)C9=O)CC7)CC6)CC5)nc4c3F)c12 (centres unmarked) [Compound 115] | – | 31 to 60 | DC50: 11 to 50 nM
C#Cc1c(F)ccc2cc(O)cc(-c3ncc4c(N5CC6CCC(C5)N6)nc(OC5CCN(CCCCCCOc6cc(-c7scnc7C)ccc6CNC(=O)[C@@H]6C[C@@H](O)CN6C(=O)[C@@H](NC(=O)C6(F)CC6)C(C)(C)C)CC5)nc4c3F)c12 [Compound 131] | – | ≤ 10 | –
C#Cc1c(F)ccc2cc(O)cc(-c3ncc4c(N5CC6CCC(C5)N6)nc(OCC5(CN6CCN(C7CC(C(=O)N8CCC(c9ccc%10c(C%11CCC(=O)NC%11=O)nn(C)c%10c9)CC8)C7)CC6)CC5)nc4c3F)c12 (centres unmarked) [Compound 118] | – | > 60 | DC50: < 10 nM
C#Cc1c(F)ccc2cc(O)cc(-c3ncc4c(N5CC6CCC(C5)N6)nc(O[C@H]5CCN(CCCCCCCCCCCC(=O)N[C@H](C(=O)N6C[C@H](O)C[C@H]6C(=O)N[C@@H](C)c6ccc(-c7scnc7C)cc6)C(C)(C)C)C5)nc4c3F)c12 [Compound 84] | – | 31 to 60 | –
C#Cc1c(F)ccc2cc(O)cc(-c3ncc4c(N5CC6CCC(C5)N6)nc(OC5CCN(CC(=O)N6CCN(C(=O)C[C@H](NC(=O)[C@@H]7C[C@@H](O)CN7C(=O)[C@@H](NC(=O)C7(F)CC7)C(C)(C)C)c7ccc(-c8scnc8C)cc7)CC6)CC5)nc4c3F)c12 [Compound 71] | – | ≤ 10 | –
C#Cc1c(F)ccc2cc(O)cc(-c3ncc4c(N5CC6CCC(C5)N6)nc(OC5CCN(CC(=O)N6CCC7(CC6)CC(N6CCC(c8ccc9c(C%10CCC(=O)NC%10=O)nn(C)c9c8)CC6)C7)C5)nc4c3F)c12 (centres unmarked) [Compound 101] | – | – | Rate of protein degradation (KRAS^G12D) [1]: + (11 to 30%)
Cn1nc(C2CCC(=O)NC2=O)c2ccc(C3CCN(CC(=O)N4CCN(CC5(COc6nc(N7CC8CCC(C7)N8)c7cnc(-c8cc(N)cc(Cl)c8C(F)(F)F)c(F)c7n6)CC5)CC4)CC3)cc21 (centres unmarked) [Compound 128] | > 60 | – | –
C#Cc1c(F)ccc2cc(O)cc(-c3ncc4c(N5CC6CCC(C5)N6)nc(OC5CCN(CCCCCCCCCCOc6cc(-c7ncsc7C)ccc6CNC(=O)[C@@H]6C[C@@H](O)CN6C(=O)[C@@H](NC(=O)C6(F)CC6)C(C)(C)C)CC5)nc4c3F)c12 [Compound 77] | – | ≤ 10 | –
C#Cc1c(F)ccc2cc(O)cc(-c3ncc4c(N5CC6CCC(C5)N6)nc(OCC5(CN6CCC(N7CCC(c8ccc9c(C%10CCC(=O)NC%10=O)nn(C)c9c8)CC7)C(F)(F)C6)CC5)nc4c3F)c12 (centres unmarked) [Compound 139] | 31 to 60 | – | –
C#Cc1c(F)ccc2cc(O)cc(-c3ncc4c(N5CC6CCC(C5)N6)nc(OCC5(CN6CCC7(CC6)CCN(c6ccc(NC8CCC(=O)NC8=O)cc6F)CC7)CC5)nc4c3F)c12 (centres unmarked) [Compound 110] | – | 31 to 60 | DC50: < 10 nM
C#Cc1c(F)ccc2cc(O)cc(-c3ncc4c(N5CC6CCC(C5)N6)nc(OCC5(CN6CCC7(CC6)CC(N6CCC(c8ccc9c(c8)C(=O)N(C8CCC(=O)NC8=O)C9=O)CC6)C7)CC5)nc4c3F)c12 (centres unmarked) [Compound 170] | 31 to 60 | – | –
C#Cc1c(F)ccc2cc(O)cc(-c3ncc4c(N5CC6CCC(C5)N6)nc(OCC5(CN6CCC(CN7CCN(c8cc9c(cc8F)C(=O)N(C8CCC(=O)NC8=O)C9=O)CC7)CC6)CC5)nc4c3F)c12 (centres unmarked) [Compound 141] | 11 to 30 | > 60 | –
C#Cc1c(F)ccc2cc(O)cc(-c3ncc4c(N5CC6CCC(C5)N6)nc(OCC5(CN6CCN(CC7CCN(c8ccc(NC9CCC(=O)NC9=O)cc8F)CC7)CC6)CC5)nc4c3F)c12 (centres unmarked) [Compound 109] | – | 31 to 60 | –
C#Cc1c(F)ccc2cc(O)cc(-c3ncc4c(N5CC6CCC(C5)N6)nc(OCC5(CN6CCC(C7CCN(c8ccc(NC9CCC(=O)NC9=O)cc8F)CC7)CC6)CC5)nc4c3F)c12 (centres unmarked) [Compound 140] | 31 to 60 | – | –
C#Cc1c(F)ccc2cc(O)cc(-c3ncc4c(N5CC6CCC(C5)N6)nc(OCC5(CN6CCN(c7ccc(C(=O)NC8CCC(=O)NC8=O)nc7)CC6)CC5)nc4c3F)c12 (centres unmarked) [Compound 145] | ≤ 10 | – | –
C#Cc1c(F)ccc2cc(O)cc(-c3ncc4c(N5CC6CCC(C5)N6)nc(OCC5(CN6CCC(CN7CCN(c8ccc(C(=O)NC9CCC(=O)NC9=O)nc8)CC7)CC6)CC5)nc4c3F)c12 (centres unmarked) [Compound 136] | ≤ 10 | – | –
